Experimental data as given in patent publication US11957687B2 (REGENERON PHARMACEUTICALS, INC., priority 2019, dated 2024).
Where “and” joins values, the source holds several entries; their conditions need not be identical. Equal values may be shown once.

The compounds below were run against HSD17B13 (Homo sapiens (Human), UniProt Q7Z5P4) (assay: HSD17B13 enzymatic inhibition assay (150 nM or 50 nM HSD17B13)). Conditions: 50 nM HSD17B13; read-out: Inhibition of 50 nM of HSD17B13 IC50.
Assay type: biochemical

Sequence of HSD17B13 (Q7Z5P4 other isoform, or with tags, fused parts or gaps): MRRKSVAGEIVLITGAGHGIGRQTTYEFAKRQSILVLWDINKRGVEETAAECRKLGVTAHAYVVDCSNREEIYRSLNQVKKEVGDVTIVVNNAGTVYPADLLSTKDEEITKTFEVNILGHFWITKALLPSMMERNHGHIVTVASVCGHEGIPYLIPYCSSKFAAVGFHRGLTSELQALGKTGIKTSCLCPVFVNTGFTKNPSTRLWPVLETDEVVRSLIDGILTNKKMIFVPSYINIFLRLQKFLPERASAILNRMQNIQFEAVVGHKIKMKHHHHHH

Point of comparison: `O=C(NC(c1ccccc1)c1cccc(Br)n1)c1ccc(C(F)(F)F)[nH]c1=O` (stereo not drawn) [Compound 72, N-((6-bromopyridin-2-yl)(phenyl)methyl)-2-oxo-6-(trifluoromethyl)-1,2-dihydropyridine-3-carboxamide], IC50 7050 nM. Against it:
- COc1ccc2c(c1)Oc1ccccc1C2NC(=O)c1ccc(C(F)(F)F)[nH]c1=O (stereo not drawn) [Compound 54, N-(3-methoxy-9H-xanthen-9-yl)-2-oxo-6-(trifluoromethyl)-1,2-dihydropyridine-3-carboxamide] — 4.8-fold lower, 1480 nM
- COc1ccc2c(c1)Oc1cc(OC)ccc1C2NC(=O)c1ccc(C(F)(F)F)[nH]c1=O [Compound 56, N-(3,6-dimethoxy-9H-xanthen-9-yl)-2-oxo-6-(trifluoromethyl)-1,2-dihydropyridine-3-carboxamide] — 16-fold lower, 440 nM
- COc1ccc2c(c1)Oc1cccc(OC)c1C2NC(=O)c1ccc(C(F)(F)F)[nH]c1=O (stereo not drawn) [Compound 57, N-(1,6-dimethoxy-9H-xanthen-9-yl)-2-oxo-6-(trifluoromethyl)-1,2-dihydropyridine-3-carboxamide] — 15-fold lower, 460 nM
- O=C(NC(c1ccccc1)C1CCCCC1)c1ccc(C(F)(F)F)[nH]c1=O (stereo not drawn) [Compound 58, N-(cyclohexyl(phenyl)methyl)-2-oxo-6-(trifluoromethyl)-1,2-dihydropyridine-3-carboxamide] — 2.4-fold lower, 2890 nM
- O=C(NC1c2ccccc2-c2ccccc21)c1cnc(Cc2ccccc2)[nH]c1=O [Compound 59, 2-benzyl-N-(9H-fluoren-9-yl)-6-oxo-1,6-dihydropyrimidine-5-carboxamide] — higher, > 10000 nM
- O=C(Nc1cc(-c2ccccc2)cc(-c2ccccc2)c1)c1ccc(C(F)(F)F)[nH]c1=O [Compound 60, N-([1,1′:3′,1″-terphenyl]-5′-yl)-2-oxo-6-(trifluoromethyl)-1,2-dihydropyridine-3-carboxamide] — higher, > 10000 nM
- Cc1ccc(C(NC(=O)c2ccc(C(F)F)[nH]c2=O)c2ccc(C)cc2)cc1 [Compound 61, N-(di-p-tolylmethyl)-6-(difluoromethyl)-2-oxo-1,2-dihydropyridine-3-carboxamide] — 3.1-fold lower, 2250 nM
- Cc1cccc(C(NC(=O)c2ccc(C(F)(F)F)[nH]c2=O)c2cccc(C)c2)c1 [Compound 62, N-(di-m-tolylmethyl)-6-(trifluoromethyl)-2-oxo-1,2-dihydropyridine-3-carboxamide] — 6.4-fold lower, 1110 nM
- CC(=O)Nc1ccc(C(NC(=O)c2ccc(C(F)(F)F)[nH]c2=O)c2ccccc2)cc1 (stereo not drawn) [Compound 66, N-((4-acetamidophenyl)(phenyl)methyl)-2-oxo-6-(trifluoromethyl)-1,2-dihydropyridine-3-carboxamide] — within 1.5-fold, 7220 nM
- O=C(NC(c1ccc(Cl)cc1)c1ccccn1)c1ccc(C(F)(F)F)[nH]c1=O (stereo not drawn) [Compound 67, N-((4-chlorophenyl)(pyridin-2-yl)methyl)-2-oxo-6-(trifluoromethyl)-1,2-dihydropyridine-3-carboxamide] — 3.1-fold lower, 2270 nM
- O=C(NC(c1ccncc1)c1ccc(Cl)cc1)c1ccc(C(F)(F)F)[nH]c1=O (stereo not drawn) [Compound 68, N-((4-chlorophenyl)(pyridin-4-yl)methyl)-2-oxo-6-(trifluoromethyl)-1,2-dihydropyridine-3-carboxamide] — 2.8-fold lower, 2530 nM
- O=C(NC(c1ccc(Cl)cc1)c1cccnc1)c1ccc(C(F)(F)F)[nH]c1=O (stereo not drawn) [Compound 69, N-((4-chlorophenyl)(pyridin-3-yl)methyl)-2-oxo-6-(trifluoromethyl)-1,2-dihydropyridine-3-carboxamide] — 2.7-fold lower, 2590 nM
- O=C(NC(c1ccc(Cl)cc1)c1cnccn1)c1ccc(C(F)(F)F)[nH]c1=O (stereo not drawn) [Compound 70, N-((4-chlorophenyl)(pyrazin-2-yl)methyl)-2-oxo-6-(trifluoromethyl)-1,2-dihydropyridine-3-carboxamide] — higher, > 10000 nM
- O=C(NC(c1ccc(Cl)cc1)c1ncccn1)c1ccc(C(F)(F)F)[nH]c1=O (stereo not drawn) [Compound 71, N-((4-chlorophenyl)(pyrimidin-2-yl)methyl)-2-oxo-6-(trifluoromethyl)-1,2-dihydropyridine-3-carboxamide] — within 1.5-fold, 5850 nM
- O=C(NC(c1ccncc1)c1ccncc1)c1ccc(C(F)(F)F)[nH]c1=O [Compound 73, N-(di(pyridin-4-yl)methyl)-2-oxo-6-(trifluoromethyl)-1,2-dihydropyridine-3-carboxamide] — higher, > 10000 nM
- O=C(Cc1ccccc1)Nc1ccc(C(NC(=O)c2ccc(C(F)(F)F)[nH]c2=O)c2ccccc2)cc1 (stereo not drawn) [Compound 74, N-(phenyl(4-(2-phenylacetamido)phenyl)methyl)-2-oxo-6-(trifluoromethyl)-1,2-dihydropyridine-3-carboxamide] — 5.1-fold lower, 1370 nM
- O=C(Nc1ccc(C(NC(=O)c2ccc(C(F)(F)F)[nH]c2=O)c2ccccc2)cc1)c1ccccc1 (stereo not drawn) [Compound 75, N-((4-benzamidophenyl)(phenyl)methyl)-2-oxo-6-(trifluoromethyl)-1,2-dihydropyridine-3-carboxamide] — 3.8-fold lower, 1870 nM
- O=C(NC(c1ccccc1)c1ccc(C2CCOCC2)cc1)c1ccc(C(F)(F)F)[nH]c1=O (stereo not drawn) [Compound 76, N-(phenyl(4-(tetrahydro-2H-pyran-4-yl)phenyl)methyl)-2-oxo-6-(trifluoromethyl)-1,2-dihydropyridine-3-carboxamide] — 4.1-fold lower, 1700 nM
- O=C(NC(c1ccccc1)c1ccc(C2CCC2)cc1)c1ccc(C(F)(F)F)[nH]c1=O (stereo not drawn) [Compound 77, N-((4-cyclobutylphenyl)(phenyl)methyl)-2-oxo-6-(trifluoromethyl)-1,2-dihydropyridine-3-carboxamide] — 10-fold lower, 680 nM
- COc1ccc(C(NC(=O)c2c(C)cc(C(F)(F)F)[nH]c2=O)c2ccccc2)cc1 (stereo not drawn) [Compound 78, N-((4-methoxyphenyl)(phenyl)methyl)-4-methyl-2-oxo-6-(trifluoromethyl)-1,2-dihydropyridine-3-carboxamide] — 5.3-fold lower, 1340 nM
- O=C(NC(c1ccccc1OC(F)(F)F)c1ccccc1OC(F)(F)F)c1ccc(C(F)(F)F)[nH]c1=O [Compound 79, N-(bis(2-(trifluoromethoxy)phenyl)methyl)-2-oxo-6-(trifluoromethyl)-1,2-dihydropyridine-3-carboxamide] — 3-fold lower, 2330 nM
- O=C(NC(c1ccccc1)c1ccc2c(c1)CCCO2)c1ccc(C(F)(F)F)[nH]c1=O (stereo not drawn) [Compound 81, N-(chroman-6-yl(phenyl)methyl)-2-oxo-6-(trifluoromethyl)-1,2-dihydropyridine-3-carboxamide] — 6.5-fold lower, 1090 nM
- O=C(NC(c1ccccc1)c1ccc2c(c1)CCOC2)c1ccc(C(F)(F)F)[nH]c1=O (stereo not drawn) [Compound 82, N-(isochroman-6-yl(phenyl)methyl)-2-oxo-6-(trifluoromethyl)-1,2-dihydropyridine-3-carboxamide] — 8.4-fold lower, 840 nM
- O=C(NC(c1ccccc1)c1ccc2c(c1)COCC2)c1ccc(C(F)(F)F)[nH]c1=O (stereo not drawn) [Compound 83, N-(isochroman-7-yl(phenyl)methyl)-2-oxo-6-(trifluoromethyl)-1,2-dihydropyridine-3-carboxamide] — 3-fold lower, 2370 nM
- O=C(NC(c1ccccc1)c1ccc2c(c1)OCC2)c1ccc(C(F)(F)F)[nH]c1=O (stereo not drawn) [Compound 84, N-((2,3-dihydrobenzofuran-6-yl)(phenyl)methyl)-2-oxo-6-(trifluoromethyl)-1,2-dihydropyridine-3-carboxamide] — 6.8-fold lower, 1040 nM
- O=C(NC(c1ccccc1)c1ccc(-c2ccncc2)cc1)c1ccc(C(F)(F)F)[nH]c1=O (stereo not drawn) [Compound 85, 2-oxo-N-(phenyl(4-(pyridin-4-yl)phenyl)methyl)-6-(trifluoromethyl)-1,2-dihydropyridine-3-carboxamide] — 8.4-fold lower, 840 nM
- O=C(NC(c1ccccc1)c1ccc(C2CCOC2)cc1)c1ccc(C(F)(F)F)[nH]c1=O (stereo not drawn) [Compound 86, N-(phenyl(4-(tetrahydrofuran-3-yl)phenyl)methyl)-2-oxo-6-(trifluoromethyl)-1,2-dihydropyridine-3-carboxamide] — 3.6-fold lower, 1940 nM
- O=C(NC(c1ccccc1)c1ccc(C2=CCOC2)cc1)c1ccc(C(F)(F)F)[nH]c1=O (stereo not drawn) [Compound 87, N-((4-(2,5-dihydrofuran-3-yl)phenyl)(phenyl)methyl)-2-oxo-6-(trifluoromethyl)-1,2-dihydropyridine-3-carboxamide] — 6.2-fold lower, 1130 nM
- O=C(NC(c1ccccc1)c1ccc(N2CCNCC2)cc1)c1ccc(C(F)(F)F)[nH]c1=O (stereo not drawn) [Compound 88, N-(phenyl(4-(piperazin-1-yl)phenyl)methyl)-2-oxo-6-(trifluoromethyl)-1,2-dihydropyridine-3-carboxamide] — higher, > 10000 nM
- O=C(NC(c1ccccc1)c1ccc2c(c1)OCCC2)c1ccc(C(F)(F)F)[nH]c1=O (stereo not drawn) [Compound 89, N-(chroman-7-yl(phenyl)methyl)-2-oxo-6-(trifluoromethyl)-1,2-dihydropyridine-3-carboxamide] — 6.5-fold lower, 1090 nM
- O=C(NC(c1ccccc1)c1ccc2c(c1)CCC2)c1ccc(C(F)(F)F)[nH]c1=O (stereo not drawn) [Compound 90, N-((2,3-dihydro-1H-inden-5-yl)(phenyl)methyl)-2-oxo-6-(trifluoromethyl)-1,2-dihydropyridine-3-carboxamide] — 14-fold lower, 520 nM
- O=C(NC(c1ccccc1)c1ccc2c(c1)CCO2)c1ccc(C(F)(F)F)[nH]c1=O (stereo not drawn) [Compound 91, N-((2,3-dihydrobenzofuran-5-yl)(phenyl)methyl)-2-oxo-6-(trifluoromethyl)-1,2-dihydropyridine-3-carboxamide] — 7.7-fold lower, 920 nM
- O=C(NC(c1ccccc1)c1ccc(-c2cncnc2)cc1)c1ccc(C(F)(F)F)[nH]c1=O (stereo not drawn) [Compound 92, N-(phenyl(4-(pyrimidin-5-yl)phenyl)methyl)-2-oxo-6-(trifluoromethyl)-1,2-dihydropyridine-3-carboxamide] — 3.3-fold lower, 2140 nM
- O=C(NC(c1ccccc1)c1ccc(N2CCN(CC(F)(F)F)CC2)cc1)c1ccc(C(F)(F)F)[nH]c1=O (stereo not drawn) [Compound 96, N-(phenyl(4-(4-(2,2,2-trifluoroethyl)piperazin-1-yl)phenyl)methyl)-2-oxo-6-(trifluoromethyl)-1,2-dihydropyridine-3-carboxamide] — 4.1-fold lower, 1740 nM

With `CN1CCN(c2ccc(C(NC(=O)c3ccc(C(F)(F)F)[nH]c3=O)c3ccccc3)cc2)CC1` (stereo not drawn) [Compound 95, N-((4-(4-methylpiperazin-1-yl)phenyl)(phenyl)methyl)-2-oxo-6-(trifluoromethyl)-1,2-dihydropyridine-3-carboxamide] the IC50 was 1460 nM and 350 nM.
